According to patent US20240398817A1, “CARDIO- AND RENOSAFE ANTIDIABETIC THERAPY” (priority 2018, published 2024):

Test system: patients with type 2 diabetes at high vascular risk
Assay: Cardiovascular and Renal Outcomes Trial: linagliptin 5 mg once daily vs placebo on top of standard of care
Type: in vivo
Details: for Hazard ratio for hospitalised heart failure: vs placebo
Method: The effect of linagliptin on cardiovascular risk in adult patients with type 2 diabetes mellitus and with increased CV risk evidenced by a history of established macrovascular or renal disease (e.g. as defined herein) was evaluated in a multi-center, multi-national, randomized, double-blind parallel group trial. The trial compared the risk of experiencing a major adverse cardiovascular event (MACE) between linagliptin and placebo when these were added to and used concomitantly with standard of care treatments for diabetes (HbA1c), cardiovascular risk factors and renal disease.
The primary endpoint in this trial was the time to first occurrence of three point (3P) MACE. A major adverse cardiac event was defined as a cardiovascular death or a nonfatal myocardial infarction (MI) or a nonfatal stroke. The statistical analysis plan tested for non-inferiority for the occurrence of (3P) MACE. […] The secondary endpoint was a renal composite, defined as renal death or sustained end stage renal disease or sustained decrease of 40% or more in eGFR.
Type 2 diabetes patient with insufficient glycemic control (naïve or pre-treated with any antidiabetic background medication, excluding treatment with GLP-1 receptor agonists, DPP-4inhibitors or SGLT-2 inhibitors if ≥consecutive 7 days, e.g. having HbA1c 6.5-10%), and high risk of cardiovascular events, e.g. defined by: • albuminuria (micro or macro) and previous macrovascular disease: e.g. defined according to Condition I as indicated below; • and/or • impaired renal function: e.g. as defined according to Condition II as indicated below;
Background and aims: People with type 2 diabetes (T2D) are at increased risk for hospitalization for heart failure (hHF), particularly in the setting of concomitant cardiovascular (CV) and/or kidney disease. […] Here we present analyses of HF outcomes with the DPP-4 inhibitor linagliptin (LINA) vs. placebo (PBO) from a Cardiovascular and Renal Outcomes Trial assessing cardiovascular safety and renal microvascular outcome in patients with type 2 diabetes at high vascular risk, a large CV outcomes trial that enrolled participants with T2D at high risk for hHF due to concomitant CV and/or chronic kidney disease. Materials and methods: People with T2D and concomitant CV and/or kidney disease were randomized to receive LINA 5 mg, or PBO once daily (1:1), on top of standard of care. All hHF, CV outcomes, and deaths were centrally adjudicated, with individual and composite HF-related outcomes analyses comparing LINA vs. placebo. Investigator-reported HF-related adverse events, whether or not confirmed by adjudication, were also analyzed. A Cox proportional hazards model adjusting for region and history of HF was used for analyses of first events. Recurrent hHF events were analyzed using a negative binomial model.
Methods: The present Cardiovascular and Renal Outcomes Trial randomized people with T2D and i) concomitant CV disease with UACR >30 mg/g or ii) prevalent CKD (i.e. GFR <45 ml/min/1.73m2 and/or UACR >200 mg/g) to receive the DPP-4 inhibitor linagliptin (5 mg) or placebo once daily in a double-blind fashion. The primary CV endpoint was 3P-MACE, with a key secondary kidney endpoint (adjudicated ESKD, renal death, or sustained ≥40% decrease in eGFR from baseline) and other renal outcomes (including albuminuria and eGFR slope) also assessed. Subgroups were assessed by baseline kidney function (eGFR ≥/<45 ml/min/1.73m2and eGFR ≥/<30, 45 or 60 ml/min/1.73m2).
Adults with type 2 diabetes, HbA1c 6.5-10.0% inclusive, and high CV risk were eligible for inclusion. […] Macrovascular disease eligibility criteria was based on documented and confirmed history of myocardial infarction, coronary artery disease, stroke, carotid artery disease, or peripheral artery disease. Participants with end-stage kidney disease (ESKD), defined as eGFR <15 or requiring maintenance dialysis, were excluded.

[1] = Duration of type 2 diabetes ≥10 years
[2] = Established macrovascular disease and albuminuria No
[3] = Established macrovascular disease and albuminuria Yes
[4] = Estimated glomerular filtration rate <30 mL/min/1.73 m^2
[5] = Estimated glomerular filtration rate ≥30 to <45 mL/min/1.73 m^2
[6] = Estimated glomerular filtration rate ≥45 to <60 mL/min/1.73 m^2
[7] = Estimated glomerular filtration rate ≥60 mL/min/1.73 m^2

CC#CCn1c(N2CCC[C@@H](N)C2)nc2c1c(=O)n(Cc1nc(C)c3ccccc3n1)c(=O)n2C [Linagliptin, 1-[(4-methyl-quinazolin-2-yl)methyl]-3-methyl-7-(2-butyn-1-yl)-8-(3-(R)-amino-piperidin-1-yl)-xanthine]
3-point MACE: patients with event/patients analyzed [1]: 316/2277
Key secondary kidney outcome: hazard ratio vs placebo [1]: 0.97
Key secondary kidney outcome: patients with event/patients analyzed [1]: 230/2277
Patients with event/patients analysed, hospitalised heart failure [1]: 149/2277
Hazard ratio for hospitalised heart failure [1]: 0.89
3-point MACE: hazard ratio vs placebo [2]: 1.13
3-point MACE: patients with event/patients analyzed [2]: 198/1486
Key secondary kidney outcome: hazard ratio vs placebo [2]: 1.03
Key secondary kidney outcome: patients with event/patients analyzed [2]: 215/1486
Patients with event/patients analysed, hospitalised heart failure [2]: 96/1486
Hazard ratio for hospitalised heart failure [2]: 0.87
3-point MACE: hazard ratio vs placebo [3]: 0.94
3-point MACE: patients with event/patients analyzed [3]: 236/2008
Key secondary kidney outcome: hazard ratio vs placebo [3]: 1.11
Key secondary kidney outcome: patients with event/patients analyzed [3]: 112/2008
Patients with event/patients analysed, hospitalised heart failure [3]: 113/2008
Hazard ratio for hospitalised heart failure [3]: 0.93
3-point MACE: hazard ratio vs placebo (Established renal disease No): 0.98
3-point MACE: patients with event/patients analyzed (Established renal disease No): 120/1385
Key secondary kidney outcome: hazard ratio vs placebo (Established renal disease No): 1.20
Key secondary kidney outcome: patients with event/patients analyzed (Established renal disease No): 38/1385
Patients with event/patients analysed, hospitalised heart failure (Established renal disease No): 47/1385
Hazard ratio for hospitalised heart failure (Established renal disease No): 1.19
3-point MACE: hazard ratio vs placebo (Established renal disease Yes): 1.04
3-point MACE: patients with event/patients analyzed (Established renal disease Yes): 314/2109
Key secondary kidney outcome: hazard ratio vs placebo (Established renal disease Yes): 1.00
Key secondary kidney outcome: patients with event/patients analyzed (Established renal disease Yes): 289/2109
Patients with event/patients analysed, hospitalised heart failure (Established renal disease Yes): 162/2109
Hazard ratio for hospitalised heart failure (Established renal disease Yes): 0.84
Patients with event/patients analysed, hospitalised heart failure [4]: 59/516
Hazard ratio for hospitalised heart failure [4]: 0.94
Patients with event/patients analysed, hospitalised heart failure [5]: 76/994
Hazard ratio for hospitalised heart failure [5]: 0.85
Patients with event/patients analysed, hospitalised heart failure [6]: 38/690
Hazard ratio for hospitalised heart failure [6]: 1.06
Patients with event/patients analysed, hospitalised heart failure [7]: 36/1294
Hazard ratio for hospitalised heart failure [7]: 0.88
3-point MACE: hazard ratio vs placebo (Ethnicity Hispanic/Latino): 1.13
3-point MACE: patients with event/patients analyzed (Ethnicity Hispanic/Latino): 143/1227
Key secondary kidney outcome: hazard ratio vs placebo (Ethnicity Hispanic/Latino): 1.10
Key secondary kidney outcome: patients with event/patients analyzed (Ethnicity Hispanic/Latino): 156/1227
Patients with event/patients analysed, hospitalised heart failure (Ethnicity Hispanic/Latino): 58/1227
Hazard ratio for hospitalised heart failure (Ethnicity Hispanic/Latino): 0.96
3-point MACE: hazard ratio vs placebo (Ethnicity Not Hispanic/Latino): 0.97
3-point MACE: patients with event/patients analyzed (Ethnicity Not Hispanic/Latino): 291/2267
Key secondary kidney outcome: hazard ratio vs placebo (Ethnicity Not Hispanic/Latino): 0.99
Key secondary kidney outcome: patients with event/patients analyzed (Ethnicity Not Hispanic/Latino): 171/2267
Patients with event/patients analysed, hospitalised heart failure (Ethnicity Not Hispanic/Latino): 151/2267
Hazard ratio for hospitalised heart failure (Ethnicity Not Hispanic/Latino): 0.87
3-point MACE: hazard ratio vs placebo (Gender Female): 0.96
3-point MACE: patients with event/patients analyzed (Gender Female): 152/1346
Key secondary kidney outcome: hazard ratio vs placebo (Gender Female): 0.92
Key secondary kidney outcome: patients with event/patients analyzed (Gender Female): 117/1346
Patients with event/patients analysed, hospitalised heart failure (Gender Female): 74/1346
Hazard ratio for hospitalised heart failure (Gender Female): 0.97
3-point MACE: hazard ratio vs placebo (Gender Male): 1.06
3-point MACE: patients with event/patients analyzed (Gender Male): 282/2148
Key secondary kidney outcome: hazard ratio vs placebo (Gender Male): 1.12
Key secondary kidney outcome: patients with event/patients analyzed (Gender Male): 210/2148
Patients with event/patients analysed, hospitalised heart failure (Gender Male): 135/2148
Hazard ratio for hospitalised heart failure (Gender Male): 0.87
Patients with event/patients analysed, hospitalised heart failure (Glycated haemoglobin <8.0%): 107/1915
Hazard ratio for hospitalised heart failure (Glycated haemoglobin <8.0%): 0.78
Patients with event/patients analysed, hospitalised heart failure (Glycated haemoglobin ≥8.0%): 102/1579
Hazard ratio for hospitalised heart failure (Glycated haemoglobin ≥8.0%): 1.05
3-point MACE: hazard ratio vs placebo (Glycated hemoglobin <8.0%): 0.90
3-point MACE: patients with event/patients analyzed (Glycated hemoglobin <8.0%): 229/1915
Key secondary kidney outcome: hazard ratio vs placebo (Glycated hemoglobin <8.0%): 1.13
Key secondary kidney outcome: patients with event/patients analyzed (Glycated hemoglobin <8.0%): 186/1915
3-point MACE: hazard ratio vs placebo (Glycated hemoglobin ≥8.0%): 1.20
3-point MACE: patients with event/patients analyzed (Glycated hemoglobin ≥8.0%): 205/1579
Key secondary kidney outcome: hazard ratio vs placebo (Glycated hemoglobin ≥8.0%): 0.94
Key secondary kidney outcome: patients with event/patients analyzed (Glycated hemoglobin ≥8.0%): 141/1579
3-point MACE: hazard ratio vs placebo (History of heart failure No): 1.02
3-point MACE: patients with event/patients analyzed (History of heart failure No): 275/2542
Key secondary kidney outcome: hazard ratio vs placebo (History of heart failure No): 1.07
Key secondary kidney outcome: patients with event/patients analyzed (History of heart failure No): 252/2542
Patients with event/patients analysed, hospitalised heart failure (History of heart failure No): 96/2542
Hazard ratio for hospitalised heart failure (History of heart failure No): 0.92
3-point MACE: hazard ratio vs placebo (History of heart failure Yes): 1.01
3-point MACE: patients with event/patients analyzed (History of heart failure Yes): 159/952
Key secondary kidney outcome: hazard ratio vs placebo (History of heart failure Yes): 0.95
Key secondary kidney outcome: patients with event/patients analyzed (History of heart failure Yes): 75/952
Patients with event/patients analysed, hospitalised heart failure (History of heart failure Yes): 113/952
